Test results: US20060293307A1, “Oxazolidinone derivatives as antimicrobials” (priority 2002, published 2006)
In brackets after ≈: the same amount, converted by molar mass. Like-named read-outs stand apart in the source and are kept apart here.

How the values were obtained:
[1] = system: S. warnerii ST360; experiment: MIC, agar incorporation method; type: cell-based
[2] = system: H. influenzae ATCC 49247; experiment: MIC against Haemophilus strains; type: cell-based
[3] = system: H. influenzae R; experiment: MIC against Haemophilus strains; type: cell-based
[4] = system: H. influenzae 23; experiment: MIC against Haemophilus strains; type: cell-based
[5] = system: H. influenzae P318; experiment: MIC against Haemophilus strains; type: cell-based
[6] = system: M. tuberculosis SGPGI; experiment: MIC against M. tuberculosis strains, agar dilution; type: cell-based, Mycobacterium tuberculosis; settings: S. No. 06 Mt-, Middle Brook 7H10 + OADC, 37° C., 14-21 days
[7] = system: M. tuberculosis M-168; experiment: MIC against M. tuberculosis strains, agar dilution; type: cell-based, Mycobacterium tuberculosis; settings: S. No. 09 Mt-, Middle Brook 7H10 + OADC, 37° C., 14-21 days
[8] = system: M. tuberculosis M-164; experiment: MIC against M. tuberculosis strains, agar dilution; type: cell-based, Mycobacterium tuberculosis; settings: S. No. 10 Mt-, Middle Brook 7H10 + OADC, 37° C., 14-21 days
[9] = system: M. tuberculosis V-591; experiment: MIC against M. tuberculosis strains, agar dilution; type: cell-based, Mycobacterium tuberculosis; settings: S. No. 13 Mt-, Middle Brook 7H10 + OADC, 37° C., 14-21 days
[10] = system: M. tuberculosis PC; experiment: MIC against M. tuberculosis strains, agar dilution; type: cell-based, Mycobacterium tuberculosis; settings: S. No. 16 Mt-, Middle Brook 7H10 + OADC, 37° C., 14-21 days
[11] = system: M. tuberculosis PC; experiment: MIC against M. tuberculosis strains, agar dilution; type: cell-based, Mycobacterium tuberculosis; settings: S. No. 17 Mt-, Middle Brook 7H10 + OADC, 37° C., 14-21 days
[12] = system: M. tuberculosis PC; experiment: MIC against M. tuberculosis strains, agar dilution; type: cell-based, Mycobacterium tuberculosis; settings: S. No. 19 Mt-, Middle Brook 7H10 + OADC, 37° C., 14-21 days
[13] = system: M. tuberculosis PC; experiment: MIC against M. tuberculosis strains, agar dilution; type: cell-based, Mycobacterium tuberculosis; settings: S. No. 20 Mt-, Middle Brook 7H10 + OADC, 37° C., 14-21 days
[14] = system: M. tuberculosis PC; experiment: MIC against M. tuberculosis strains, agar dilution; type: cell-based, Mycobacterium tuberculosis; settings: S. No. 22 Mt-, Middle Brook 7H10 + OADC, 37° C., 14-21 days
[15] = system: M. tuberculosis PC 4793; experiment: MIC against M. tuberculosis strains, agar dilution; type: cell-based, Mycobacterium tuberculosis; settings: S. No. 23 Mt-, Middle Brook 7H10 + OADC, 37° C., 14-21 days
[16] = system: M avium ATCC 700897; experiment: MIC against MAC strains, agar dilution; type: cell-based, Mycobacterium avium; settings: S. No. 05 Ma-6, M avium ATCC 700897; Middle Brook 7H10 + OADC, 37° C., 14-21 days
[17] = system: M. avium intracellulare 4; experiment: MIC against MAC strains, agar dilution; type: cell-based; settings: S. No. 11 Mai-2, M. avium intracellulare 4; Middle Brook 7H10 + OADC, 37° C., 14-21 days
[18] = system: M. avium intracellulare 1211/96; experiment: MIC against MAC strains, agar dilution; type: cell-based; settings: S. No. 13 Mai-5, M. avium intracellulare 1211/96; Middle Brook 7H10 + OADC, 37° C., 14-21 days
[19] = Haemophilus influenzae, ATCC49247, s. No. 2, H. influenzae ATCC 49247, read-out: MIC
[20] = Haemophilus influenzae, s. No. 4, H. influenzae R, read-out: MIC
[21] = Haemophilus influenzae, s. No. 5, H. influenzae 23, read-out: MIC
[22] = Haemophilus influenzae, s. No. 10, H. influenzae P318, read-out: MIC
[23] = s. No. 2, H. influenzae ATCC 49247

CC(=O)NC[C@H]1CN(c2ccc(N3CCN(c4ccc(C=O)s4)CC3)c(F)c2)C(=O)O1 [Compound No. 2, (S)—N-[[3-[3-Fluoro-4-[4-(5-formyl-2-thienyl)-1-piperazinyl]phenyl]-2-oxo-5-oxazolidinyl]methyl]acetamide]
MIC [1]: < 0.25 µg/mL | MIC [2, 19]: 16 µg/mL (≈ 35.8 µM) | MIC [3, 20]: > 16 µg/mL | MIC [4, 21]: > 16 µg/mL | MIC [5, 22]: > 16 µg/mL | melting point: 180 °C (dec.)

CC(=O)NC[C@H]1CN(c2ccc(N3CCN(c4ccc(C=O)o4)CC3)c(F)c2)C(=O)O1 [Compound No. 3, (S)—N-[[3-[3-Fluoro-4-[4-(5-formyl-2-furyl)-1-piperazinyl]phenyl]-2-oxo-5-oxazolidinyl]methyl]acetamide]
MIC [2, 19]: 4 µg/mL (≈ 9.29 µM) | MIC [3, 20]: 8 µg/mL (≈ 18.6 µM) | MIC [4, 21]: 8 µg/mL (≈ 18.6 µM) | MIC [5, 22]: 8 µg/mL (≈ 18.6 µM) | melting point: 176 °C

CC(=O)NC[C@H]1CN(c2ccc(N3CCN(c4ccc([N+](=O)[O-])o4)CC3)c(F)c2)C(=O)O1 [Compound No. 4, (S)—N-[[3-[3-Fluoro-4-[4-(5-nitro-2-furyl)-1-piperazinyl]phenyl]-2-oxo-5-oxazolidinyl]methyl]acetamide]
MIC [1]: 8 µg/mL (≈ 17.9 µM) | melting point: 191 to 204 °C

CC(=O)NC[C@H]1CN(c2ccc(N3CCN(c4cc(C(OC(C)=O)OC(C)=O)sc4[N+](=O)[O-])CC3)c(F)c2)C(=O)O1 [Compound No. 5, (S)—N-[[3-[3-Fluoro-4-[4-{3-thienyl(2-nitro)-5-acetyloxy}methylacetate]-1-piperazinyl]phenyl]-2-oxo-5-oxazolidinyl]acetamide]
MIC ([1]; S. No. 16, S. warnerii ST360): 0.25 µg/mL (≈ 0.421 µM) | MIC [2, 23]: >16 µg/mL | MIC ([3]; s. No. 4, H. influenzae R): 16 µg/mL (≈ 27 µM) | MIC ([4]; s. No. 5, H. influenzae 23): >16 µg/mL | MIC ([5]; s. No. 10, H. influenzae P318): >16 µg/mL

CC(=O)NC[C@H]1CN(c2ccc(N3CCN(c4ccc([N+](=O)[O-])s4)CC3)cc2)C(=O)O1 [Compound No. 6, (S)—N-[[3-[4-[N-1-(5-nitro-2-thienyl)piperazinyl]-phenyl]-2-oxo-5-oxazolidinyl]-methyl]-acetamide]
MIC ([1]; S. No. 16, S. warnerii ST360): 1 µg/mL (≈ 2.24 µM) | MIC [2, 23]: 16 µg/mL (≈ 35.9 µM) | MIC ([3]; s. No. 4, H. influenzae R): 16 µg/mL (≈ 35.9 µM) | MIC ([4]; s. No. 5, H. influenzae 23): 16 µg/mL (≈ 35.9 µM) | MIC ([5]; s. No. 10, H. influenzae P318): 16 µg/mL (≈ 35.9 µM)

C[C@H](Cl)C(=O)NCC1CN(c2ccc(N3CCN(c4ccc([N+](=O)[O-])s4)CC3)c(F)c2)C(=O)O1 (stereo partly drawn) [Compound No. 7, (S)—N-[[3-[3-Fluoro-4-[N-1-{4-(5-nitro-2-thienyl)piperazinyl}]-phenyl]-2-oxo-5-oxazolidinyl]-methyl]-2-chloro-propionamide]
MIC ([1]; S. No. 16, S. warnerii ST360): 4 µg/mL (≈ 7.81 µM) | MIC [2, 23]: >16 µg/mL | MIC ([3]; s. No. 4, H. influenzae R): >16 µg/mL | MIC ([4]; s. No. 5, H. influenzae 23): >16 µg/mL | MIC ([5]; s. No. 10, H. influenzae P318): >16 µg/mL

O=C(NC[C@H]1CN(c2ccc(N3CCN(c4ccc([N+](=O)[O-])s4)CC3)c(F)c2)C(=O)O1)C(F)F [Compound No. 8, (S)—N-[[3-[3-Fluoro-4-[4-(5-nitro-2-thienyl)-1-piperazinyl]phenyl]-2-oxo-5-oxazolidinyl]methyl]difluoroacetamide]
MIC [1]: 0.25 µg/mL (≈ 0.501 µM) | MIC ([2]; Haemophilus influenzae, ATCC49247): > 16 µg/mL | MIC ([3]; Haemophilus influenzae): > 16 µg/mL | MIC ([4]; Haemophilus influenzae, 23): > 16 µg/mL | MIC ([5]; Haemophilus influenzae, P318): > 16 µg/mL

CO[C@H]1/C=C/O[C@@]2(C)Oc3c(C)c(O)c4c(O)c(c(/C=N/N5CCN(C)CC5)c(O)c4c3C2=O)NC(=O)/C(C)=C\C=C\[C@H](C)[C@H](O)[C@@H](C)[C@@H](O)[C@@H](C)[C@H](OC(C)=O)[C@@H]1C [RIF]
MIC [6]: >32 µg/mL | MIC [7]: 16 µg/mL | MIC [8]: >32 µg/mL | MIC [9]: >32 µg/mL | MIC [10]: 4.0 µg/mL | MIC [11]: 2.0 µg/mL | MIC [12]: 0.06 µg/mL | MIC [13]: 2.0 µg/mL | MIC [14]: 2.0 µg/mL | MIC [15]: 2.0 µg/mL | MIC [16]: 1.0 µg/mL | MIC [17]: 0.25 µg/mL | MIC [18]: 0.25 µg/mL

CN[C@H](CC(C)C)C(=O)N[C@H]1C(=O)N[C@@H](CC(N)=O)C(=O)N[C@H]2C(=O)N[C@H]3C(=O)N[C@H](C(=O)N[C@H](C(=O)O)c4cc(O)cc(O)c4-c4cc3ccc4O)[C@H](O)c3ccc(c(Cl)c3)Oc3cc2cc(c3O[C@@H]2O[C@H](CO)[C@@H](O)[C@H](O)[C@H]2O[C@H]2C[C@](C)(N)[C@H](O)[C@H](C)O2)Oc2ccc(cc2Cl)[C@H]1O [Vancomycin, reference compound]
MIC [1]: 0.5 µg/mL (≈ 0.345 µM)

O=C(NC[C@H]1CN(c2ccc(N3CCN(c4ccc([N+](=O)[O-])s4)CC3)c(F)c2)C(=O)O1)C(Cl)Cl [compound 9, (S)—N-[[3-[-3-Fluoro-4-[N-1-(5-nitro-2-thienyl)-piperazinyl]phenyl] -2-oxo-5-oxazolidinyl]methyl]dichloroacetamide]
MIC ([1]; S. No. 16, S. warnerii ST360): 0.5 µg/mL (≈ 0.939 µM) | MIC [2, 23]: >16 µg/mL | MIC ([3]; s. No. 4, H. influenzae R): >16 µg/mL | MIC ([4]; s. No. 5, H. influenzae 23): >16 µg/mL | MIC ([5]; s. No. 10, H. influenzae P318): >16 µg/mL

(S)—N-[[3-[-3-Fluoro-4-[(5-nitro-2-thienyl)-3-methyl-1-piperazinyl]phenyl]-2-oxo-5-oxazolidinyl]methyl]acetamide [Compound No. 10]
MIC ([1]; S. No. 16, S. warnerii ST360): 0.5 µg/mL | MIC [2, 23]: >16 µg/mL | MIC ([3]; s. No. 4, H. influenzae R): >16 µg/mL | MIC ([4]; s. No. 5, H. influenzae 23): >16 µg/mL | MIC ([5]; s. No. 10, H. influenzae P318): >16 µg/mL
